This note sets out measurements from patent US8591878B2, “Therapeutic compounds” (Merck Sharp & Dohme Corp., priority 2008, dated 2013).

In one assay the test system is subgenomic HCV replicon in Huh-7 cells. Description: Cell-Based HCV Replication Assay (replicon, NS3 Cell-ELISA). To be noted: Hepatitis C virus, Huh-7, 96 h, read-out: Cell based HCV Replication Assay-IC50. The arrangement: species or system hepatitis C virus (HCV). An excerpt: Another suitable assay is the cellular Replicon or rheplisa assay described as follows:
Cell-Based HCV Replication Assay
Cell clones that stably maintain subgenomic HCV replicon were obtained by transfecting Huh-7 cells with an RNA replicon identical to I377neo/NS3-3′/wt described by V. Lohmann et al., 285 SCIENCE 110 (Jul. 2, 1999) (EMBL-GENBANK No. AJ242652), followed by selection with neomycin sulfate (G418). Viral replication was monitored by measuring the expression of the NS3 protein by an ELISA assay performed directly on cells grown in 96-well microtiter plates (Cell-ELISA) using the anti-NS3 monoclonal antibody 10E5/24 (as described in International Patent Application Publication WO 02/59321). Cells were seeded into 96 well plates at a density of 10^4 cells per well in a final volume of 0.1 ml of DMEM/10% FCS. Two hours after plating, 50 μl of DMEM/10% FCS containing a 3× concentration of inhibitor were added, cells were incubated for 96 hours and then fixed for 10 minutes with ice-cold isopropanol. Each condition was tested in duplicate and average absorbance values were used for calculations. The cells were washed twice with PBS, blocked with 5% non-fat dry milk in PBS+0.1% TRITON X-100+0.02% SDS (PBSTS) and then incubated o/n at 4° C. with the 10E5/24 mab diluted in Milk/PBSTS. After washing 5 times with PBSTS, the cells were incubated for 3 hours at room temperature with Fe-specific anti-mouse IgG conjugated to alkaline phosphatase (Sigma), diluted in Milk/PBSTS. After washing again as above, the reaction was developed with p-nitrophenyl phosphate disodium substrate (Sigma) and the absorbance at 405/620 nm read at intervals. For calculations, we used data sets where samples incubated without inhibitors had absorbance values comprised between 1 and 1.5. The inhibitor concentration that reduced by 50% the expression of NS3 (IC50) was calculated by fitting the data to the Hill equation, Fraction inhibition=1−(Ai−b)/(A0−b)=[I]^n/([I]+IC50) where: • Ai=absorbance value of HBI10 cells supplemented with the indicated inhibitor concentration. • A0=absorbance value of HBI10 cells incubated without inhibitor. • b=absorbance value of Huh-7 cells plated at the same density in the same microtiter plates and incubated without inhibitor. • n=Hill coefficient.
(A replicon is a self-replicating genome or part of one, used to study replication in cells.)
The term IC50 denotes the point on the concentration scale where inhibition reaches its midpoint. On to `C=C[C@@H]1C[C@]1(NC(=O)[C@@H]1C[C@@H]2CN1C(=O)[C@H](C1CCCCC1)NC(=O)N1CCC[C@H](C1)OCCCc1cc3c(cc(OCC)nc3cc1OC)O2)C(=O)NS(=O)(=O)C1CC1` [Example 12, (3R,5S,8S,15R)-8-cyclohexyl-N-((1R,2S)-1-{[(cyclopropylsulfonyl)amino]carbonyl}-2-vinylcyclopropyl)-25-ethoxy-21-methoxy-7,10-dioxo-2,16-dioxa-6,9,11,24-tetraazapentacyclo [18.6.2.1^3,6.1^11,15.0^23,27] triaconta-1(27),20,22,23,25,27-hexaene-5-carboxamide], for which the 50% inhibitory concentration (IC50) amounted to 4 nM. In the case of `C=C[C@@H]1C[C@]1(NC(=O)[C@@H]1C[C@@H]2CN1C(=O)[C@H](C(C)(C)C)NC(=O)N1CCC[C@H]1CCCCc1cccc3c1CN(C3)C(=O)O2)C(=O)NS(=O)(=O)C1CC1` [Example 5, (1R,16R,23S,26S)-23-tert-butyl-N-((1R,2S)-1-{[(cyclopropylsulfonyl)amino]carbonyl}-2-vinylcyclopropyl)-3,21,24-trioxo-2-oxa-4,20,22,25-tetraazapentacyclo [23.2.1.1^4,7.0^6,11.0^16,20] nonacosa-6,8,10-triene-26-carboxamide], the IC50 is 170 nM.

Still in this assay, the particulars now being: Hepatitis C virus; Huh-7 cells with subgenomic HCV replicon; NS3 expression by Cell-ELISA; 96 hours incubation; read-out: Cell based HCV Replication Assay-IC50.
For the compound `C=C[C@@H]1C[C@]1(NC(=O)[C@@H]1C[C@@H]2CN1C(=O)[C@H](C1CCCC1)NC(=O)N1CC[C@@H](C1)OCCC/C=C/c1cc3ccccc3cc1O2)C(=O)NS(=O)(=O)C1CC1` [Example 37, (1R,13E,19S,25S,28S)-25-cyclopentyl-N-((1R,2S)-1-{[(cyclopropylsulfonyl)amino]carbonyl}-2-vinylcyclopropyl)-23,26-dioxo-2,18-dioxa-22,24,27-triazapentacyclo [25.2.1.1^19,22.0^3,12.0^5,10] hentriaconta-3(12),4,5,7,9,10,13-heptaene-28-carboxamide], the IC50 was 4 nM. Regarding `C=C[C@@H]1C[C@]1(NC(=O)[C@@H]1C[C@@H]2CN1C(=O)[C@H](C1CCCCC1)NC(=O)N1CCC[C@@H](C1)OCCCc1cc3c(nccc3cc1OC)O2)C(=O)NS(=O)(=O)C1CC1` [Example 10, (3R,5S,8S,15S)-8-cyclohexyl-N-((1R,2S)-1-{[(cyclopropylsulfonyl)amino]carbonyl}-2-vinylcyclopropyl)-21-methoxy-7,10-dioxo-2,16-dioxa-6,9,11,26-tetraazapentacyclo [18.6.2.1^3,6.1^11,15.0^23,27] triaconta-1(26),20,22,24,27-pentaene-5-carboxamide], the IC50 is 7 nM. Still for that read-out and setting: then `C=C[C@@H]1C[C@]1(NC(=O)[C@@H]1C[C@@H]2CN1C(=O)[C@H](C1CCCCC1)NC(=O)N1CCC[C@H](C1)OCCCc1cc3c(cc(-c4ccccc4)nc3cc1OC)O2)C(=O)NS(=O)(=O)C1CC1` [Example 8, (3R,5S,8S,15R)-8-cyclohexyl-N-((1R,2S)-1-{[(cyclopropylsulfonyl)amino]carbonyl}-2-vinylcyclopropyl)-21-methoxy-7,10-dioxo-25-phenyl-2,16-dioxa-6,9,11,24-tetraazapentacyclo [18.6.2.1^3,6.1^11,15.0^23,27] triaconta-1(27),20,22,23,25,27-hexaene-5-carboxamide], with 5 nM; and `C=C[C@@H]1C[C@]1(NC(=O)[C@@H]1C[C@@H]2CN1C(=O)[C@H](C1CCCCC1)NC(=O)N1CC[C@@H](C1)OC/C=C/c1cc3c(cc(OCC)nc3cc1OC)O2)C(=O)NS(=O)(=O)C1CC1` [Example 13, (3R,5S,8S,14S,17E)-8-cyclohexyl-N-((1R,2S)-1-{[(cyclopropylsulfonyl)amino]carbonyl}-2-vinylcyclopropyl)-24-ethoxy-20-methoxy-7,10-dioxo-2,15-dioxa-6,9,11,23-tetraazapentacyclo [17.6.2.1^3,6.1^11,14.0^22,26] nonacosa-1(25),17,19,21,23,26-hexaene-5-carboxamide], with 9 nM; and `C=C[C@@H]1C[C@]1(NC(=O)[C@@H]1C[C@@H]2CN1C(=O)[C@H](C1CCCC1)NC(=O)N1CC[C@H](C1)OCCC/C=C/c1cc3ccc(OC)cc3nc1O2)C(=O)NS(=O)(=O)C1CC1` [Example 21, (1R,13E,19S,25S,28S)-25-cyclopentyl-N-((1R,2R)-1-{[(cyclopropylsulfonyl)amino]carbonyl}-2-vinylcyclopropyl)-7-methoxy-23,26-dioxo-2,18-dioxa-4,22,24,27-tetraazapentacyclo [25.2.1.1^19,22.0^3,12.0^5,10] hentriaconta-3(12),4,5,7,9,10,13-heptaene-28-carboxamide], with 20 nM. Turning to `C=C[C@@H]1C[C@]1(NC(=O)[C@@H]1C[C@@H]2CN1C(=O)[C@H](C1CCCC1)NC(=O)N1CC[C@@H](C1)OCCCCCc1cc3ccc(OC)cc3nc1O2)C(=O)NS(=O)(=O)C1CC1` [Example 18, (1R,19S,25S,28S)-25-cyclopentyl-N-((1R,2S)-1-{[(cyclopropylsulfonyl)amino]carbonyl}-2-vinylcyclopropyl)-7-methoxy-23,26-dioxo-2,18-dioxa-4,22,24,27-tetraazapentacyclo [25.2.1.1^19,22.0^3,12.0^5,10] hentriaconta-3(12),4,5,7,9,10-hexaene-28-carboxamide], the IC50 stood at 7 nM. As to `C=CC1C[C@]1(NC(=O)[C@@H]1C[C@@H]2CN1C(=O)[C@H](C1CCCCC1)NC(=O)N1CCC(CC1)OCCCCCc1cc3c(cc(OCC)nc3cc1OC)O2)C(=O)NS(=O)(=O)C1CC1` (stereo in doubt) [Example 34, (3R,5S,8S)-8-cyclohexyl-N-((1R,2R)-1-{[(cyclopropylsulfonyl)amino]carbonyl}-2-vinylcyclopropyl)-26-ethoxy-22-methoxy-7,10-dioxo-2,15-dioxa-6,9,11,25-tetraazapentacyclo [19.6.2.2^11,14.1^3,6.0^24,28] dotriaconta-1(27),21,23,25,28-pentaene-5-carboxamide], the IC50 came to 7 nM.

Still in this assay, the particulars now being: Hepatitis C virus; Huh-7 replicon cells; NS3 expression by Cell-ELISA; 96 hours; read-out: Cell-based HCV Replication Assay: IC50.
For `C=C[C@@H]1C[C@]1(NC(=O)[C@@H]1C[C@@H]2CN1C(=O)[C@H](C1CCCCC1)NC(=O)N1CCC[C@@H](C1)OCCCc1cc3c(cc(OCC)nc3cc1OC)O2)C(=O)NS(=O)(=O)C1CC1` [Example 1, (3R,5S,8S,15S)-8-Cyclohexyl-N-((1R,2S)-1-{[(cyclopropylsulfonyl)amino]carbonyl}-2-vinylcyclopropyl)-25-ethoxy-21-methoxy-7,10-dioxo-2,16-dioxa-6,9,11,24-tetraazapentacyclo[18.6.2.1^3,6.1^11,15.0^23,27]triaconta-1(27),20,22,23,25,27-hexaene-5-carboxamide], the IC50 was 4 nM. Regarding `C=C[C@@H]1C[C@]1(NC(=O)[C@@H]1C[C@@H]2CN1C(=O)[C@H](C1CCCCC1)NC(=O)N1CC(C1)OCC/C=C/c1cc3c(cc(OCC)nc3cc1OC)O2)C(=O)NS(=O)(=O)C1CC1` [Example 44, (3R,5S,8S,17E)-8-Cyclohexyl-N-((1R,2S)-1-{[(cyclopropylsulfonyl)amino]carbonyl}-2-vinylcyclopropyl)-24-ethoxy-20-methoxy-7,10-dioxo-2,14-dioxa-6,9,11,23-tetraazapentacyclo[17.6.2.1^3,6.1^11,13.0^22,26]nonacosa-1(25),17,19,21,23,26-hexaene-5-carboxamide], the IC50 worked out at 6 nM.
